Results reported in patent US11414395B2, “Heterocyclic compounds as modulators of mGluR7” (PRAGMA Therapeutics, priority 2017, dated 2022).

molecular target: human mGluR7 (Homo sapiens (Human), UniProt Q14831); assay: Inositol monophosphate production assay (IP1 assay), inhibition of L-AP4 response; assay type: cell-based; conditions: mean IC50 from at least two independent experiments; HEK293 cells transiently transfected with mGluR7, Gqtop and EAAC1; IP1 production vs EC80 L-AP4
Text: Inositol Monophosphate Production Assay (IP1 Assay):
HEK293 cells were transiently transfected with mGluR7 by electroporation and seeded in a poly-ornithine coated 96-well plate at the density of 150 000 cells/well. To allow the monitoring of receptor activity through measurements of inositol monophosphate (IP1) production, mGluR7 was transfected with a chimeric Gq/Gi protein (Gqtop). and was also co-transfected with EAAC1, a glutamate transporter, to avoid influence of extracellular glutamate. Cells were cultured in Dulbecco's Modified Eagle Medium (DMEM, Invitrogen, Cergy Pontoise, France), supplemented with 10% of Fetal Bovine Serum (FBS). Medium was changed by Glutamax™ (Invitrogen, Cergy Pontoise, France) to reduce extracellular glutamate concentration 3 hours before stimulation
IP1 production was determined using the IP-One HTRF kit (CisBio Bioassays), a competitive immunoassay using cryptate-labeled anti-IP1 antibody and d2-labeled IP, according to the manufacturer's recommendations. All points were realized in triplicate.
Data were analyzed with Prism 6 software (GraphPadSoftware, San Diego, Calif.). Typically, in each experiment, a four-parameter concentration-response curve equation was used to fit data and potency (IC50) is estimated as logarithms (log IC50). Data were calculated as % of the control mGluR7 agonist L-AP4 response, defined as the response that is generated upon addition of an EC80-equivalent concentration of L-AP4.
The Table 2 below represents the mean IC50 obtained from at least two independent experiments.

Chain of human mGluR7 (Q14831 35-915): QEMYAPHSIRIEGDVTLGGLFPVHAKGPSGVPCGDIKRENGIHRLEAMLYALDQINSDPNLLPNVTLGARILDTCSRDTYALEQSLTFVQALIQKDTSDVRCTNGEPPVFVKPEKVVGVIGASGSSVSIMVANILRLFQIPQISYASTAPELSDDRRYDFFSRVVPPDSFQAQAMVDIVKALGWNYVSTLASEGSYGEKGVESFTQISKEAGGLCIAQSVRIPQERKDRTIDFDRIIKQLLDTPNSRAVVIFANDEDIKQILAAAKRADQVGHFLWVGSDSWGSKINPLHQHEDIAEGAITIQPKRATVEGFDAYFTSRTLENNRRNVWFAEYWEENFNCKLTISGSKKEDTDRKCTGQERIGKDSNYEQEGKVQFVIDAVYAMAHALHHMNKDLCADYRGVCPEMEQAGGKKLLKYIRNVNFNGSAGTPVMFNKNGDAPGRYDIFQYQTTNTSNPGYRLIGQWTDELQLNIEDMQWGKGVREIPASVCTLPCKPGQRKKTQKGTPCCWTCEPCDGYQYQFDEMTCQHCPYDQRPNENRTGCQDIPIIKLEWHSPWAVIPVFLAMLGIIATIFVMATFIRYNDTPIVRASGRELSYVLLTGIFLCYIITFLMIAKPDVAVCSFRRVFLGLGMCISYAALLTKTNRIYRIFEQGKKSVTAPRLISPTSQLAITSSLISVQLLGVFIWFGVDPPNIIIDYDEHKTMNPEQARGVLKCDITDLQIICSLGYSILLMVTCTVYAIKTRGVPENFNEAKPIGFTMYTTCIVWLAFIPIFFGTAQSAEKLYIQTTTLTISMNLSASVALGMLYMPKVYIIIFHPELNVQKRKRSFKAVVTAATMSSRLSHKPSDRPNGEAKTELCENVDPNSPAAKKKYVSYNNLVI

Structure (SMILES)	IC50 [nM]
Cc1ccc(C2CCc3c(cnn(-c4ccc(N5CCOCC5)cn4)c3=O)C2)c(C)c1 (centres unmarked) [Example 114, 6-(2,4-dimethylphenyl)-2-(5-morpholinopyridin-2-yl)-5,6,7,8-tetrahydrophthalazin-1(2H)-one]	< 500
Cc1ccc(-n2ncc3c(c2=O)CCC(c2ccc(C)cc2C)C3)nc1 (centres unmarked) [Example 18, 6-(2,4-dimethylphenyl)-2-(5-methylpyridin-2-yl)-5,6,7,8-tetrahydrophthalazin-1(2H)-one]	< 500
O=c1c2c(cnn1-c1ncccn1)CC(c1cccc(OC3CC3)c1Cl)CC2 (single isomer, unassigned; (+)) [Example 131, (+)-6-(2-chloro-3-cyclopropoxyphenyl)-2-(pyrimidin-2-yl)-5,6,7,8-tetrahydrophthalazin-1(2H)-one]	< 500
Cc1cccc(C2CCc3c(cnn(-c4ncccn4)c3=O)C2)c1C (centres unmarked) [Example 82, 6-(2,3-dimethylphenyl)-2-(pyrimidin-2-yl)-5,6,7,8-tetrahydrophthalazin-1(2H)-one]	500 to 1000
Cc1ccc(C2CCc3c(cnn(-c4nccc(C5CC5)n4)c3=O)C2)c(C)c1 (centres unmarked) [Example 37, 2-(4-cyclopropylpyrimidin-2-yl)-6-(2,4-dimethylphenyl)-5,6,7,8-tetrahydrophthalazin-1(2H)-one]	< 500
CC(=O)c1ccc(C2CCc3c(cnn(-c4ncccn4)c3=O)C2)c(C)c1 (centres unmarked) [Example 99, 6-(4-acetyl-2-methylphenyl)-2-(pyrimidin-2-yl)-5,6,7,8-tetrahydrophthalazin-1(2H)-one]	1000 to 30000
COc1cnc(-n2ncc3c(c2=O)CCC(c2ccc(C)cc2C)C3)nc1 (centres unmarked) [Example 53, 6-(2,4-dimethylphenyl)-2-(5-methoxypyrimidin-2-yl)-5,6,7,8-tetrahydrophthalazin-1(2H)-one]	< 500
COc1cccc(C2CCc3c(cnn(-c4ncc(N5CCOCC5)cn4)c3=O)C2)c1C (centres unmarked) [Example 112, 6-(3-methoxy-2-methylphenyl)-2-(5-morpholinopyrimidin-2-yl)-5,6,7,8-tetrahydrophthalazin-1(2H)-one]	< 500
COc1ccc(C2CCc3c(cnn(-c4ncccn4)c3=O)C2)c(C)c1 (centres unmarked) [Example 87, 6-(4-methoxy-2-methylphenyl)-2-(pyrimidin-2-yl)-5,6,7,8-tetrahydrophthalazin-1(2H)-one]	< 500
COc1ccc(C2CCc3c(cnn(-c4ccccn4)c3=O)C2)cc1 (centres unmarked) [Example 3, 6-(4-methoxyphenyl)-2-(pyridin-2-yl)-5,6,7,8-tetrahydrophthalazin-1(2H)-one]	1000 to 30000
COc1cccc(C2CCc3c(cnn(-c4ccccn4)c3=O)C2)c1 (centres unmarked) [Example 2, 6-(3-methoxyphenyl)-2-(pyridin-2-yl)-5,6,7,8-tetrahydrophthalazin-1(2H)-one]	500 to 1000
Cc1ccc(C2CCc3c(cnn(-c4nc(C)cc(C)n4)c3=O)C2)c(C)c1 (centres unmarked) [Example 36, 6-(2,4-dimethylphenyl)-2-(4,6-dimethylpyrimidin-2-yl)-5,6,7,8-tetrahydrophthalazin-1(2H)-one]	1000 to 30000
COc1c(C)cccc1C1CCc2c(cnn(-c3ncccn3)c2=O)C1 (centres unmarked) [Example 71, 6-(2-methoxy-3-methylphenyl)-2-(pyrimidin-2-yl)-5,6,7,8-tetrahydrophthalazin-1(2H)-one]	500 to 1000
Cc1ccc(C2CCc3c(cnn(-c4ccc(C#N)cn4)c3=O)C2)c(C)c1 (centres unmarked) [Example 22, 6-(6-(2,4-dimethylphenyl)-1-oxo-5,6,7,8-tetrahydrophthalazin-2(1H)-yl)nicotinonitrile]	< 500
COc1cccc(C2CCc3c(cnn(-c4ncc(C)cn4)c3=O)C2)c1Cl (single isomer, unassigned; (-)) [Example 134, (−)-6-(2-chloro-3-methoxyphenyl)-2-(5-methylpyrimidin-2-yl)-5,6,7,8-tetrahydrophthalazin-1(2H)-one]	< 500
Cc1ccc(C2CCc3c(cnn(-c4ccc(F)cn4)c3=O)C2)c(C)c1 (centres unmarked) [Example 10, 6-(2,4-dimethylphenyl)-2-(5-fluoropyridin-2-yl)-5,6,7,8-tetrahydrophthalazin-1(2H)-one]	< 500
CC(=O)c1cccc(C2CCc3c(cnn(-c4ncccn4)c3=O)C2)c1C (centres unmarked) [Example 120, 6-(3-acetyl-2-methylphenyl)-2-(pyrimidin-2-yl)-5,6,7,8-tetrahydrophthalazin-1(2H)-one]	1000 to 30000
COc1cccc(C2CCc3c(cnn(-c4nccc(N5CCOCC5)n4)c3=O)C2)c1C (centres unmarked) [Example 46, 6-(3-methoxy-2-methylphenyl)-2-(4-morpholinopyrimidin-2-yl)-5,6,7,8-tetrahydrophthalazin-1(2H)-one]	< 500

Structure (SMILES)	IC50 [nM]
COc1cccc(C2CCc3c(cnn(-c4ccc(N5CCOCC5)cn4)c3=O)C2)c1C (centres unmarked) [Example 113, 6-(3-methoxy-2-methylphenyl)-2-(5-morpholinopyridin-2-yl)-5,6,7,8-tetrahydrophthalazin-1(2H)-one]	< 500
COc1ccc(C)c(C2CCc3c(cnn(-c4ncc(Cl)cn4)c3=O)C2)c1 (centres unmarked) [Example 49, 2-(5-chloropyrimidin-2-yl)-6-(5-methoxy-2-methylphenyl)-5,6,7,8-tetrahydrophthalazin-1(2H)-one]	< 500
Cc1ccc(C2CCc3c(cnn(-c4cc(F)ccn4)c3=O)C2)c(C)c1 (centres unmarked) [Example 11, 6-(2,4-dimethylphenyl)-2-(4-fluoropyridin-2-yl)-5,6,7,8-tetrahydrophthalazin-1(2H)-one]	< 500
Cc1ccc(N2CCCC2)cc1C1CCc2c(cnn(-c3ncccn3)c2=O)C1 (centres unmarked) [Example 77, 6-(2-methyl-5-(pyrrolidin-1-yl)phenyl)-2-(pyrimidin-2-yl)-5,6,7,8-tetrahydrophthalazin-1(2H)-one]	< 500
Cc1cnc(-n2ncc3c(c2=O)CCC(c2cccc(OC4CC4)c2C)C3)nc1 (centres unmarked) [Example 93, 6-(3-cyclopropoxy-2-methylphenyl)-2-(5-methylpyrimidin-2-yl)-5,6,7,8-tetrahydrophthalazin-1(2H)-one]	< 500
COc1ccc(C)cc1C1CCc2c(cnn(-c3ncccn3)c2=O)C1 (centres unmarked) [Example 76, 6-(2-methoxy-5-methylphenyl)-2-(pyrimidin-2-yl)-5,6,7,8-tetrahydrophthalazin-1(2H)-one]	< 500
COc1ccnc(-n2ncc3c(c2=O)CCC(c2cccc(OC)c2C)C3)n1 (centres unmarked) [Example 42, 6-(3-methoxy-2-methylphenyl)-2-(4-methoxypyrimidin-2-yl)-5,6,7,8-tetrahydrophthalazin-1(2H)-one]	< 500
COc1cc(C2CCc3c(cnn(-c4ncccn4)c3=O)C2)c(C)cc1C (centres unmarked) [Example 97, 6-(5-methoxy-2,4-dimethylphenyl)-2-(pyrimidin-2-yl)-5,6,7,8-tetrahydrophthalazin-1(2H)-one]	< 500
COc1cccc(C2CCc3c(cnn(-c4ncc(C)cn4)c3=O)C2)c1C (centres unmarked) [Example 41, 6-(3-methoxy-2-methylphenyl)-2-(5-methylpyrimidin-2-yl)-5,6,7,8-tetrahydrophthalazin-1(2H)-one]	< 500
O=c1c2c(cnn1-c1ncccn1)CC(c1cccc3c1ccn3C1CC1)CC2 (centres unmarked) [Example 124, 6-(1-cyclopropyl-1H-indol-4-yl)-2-(pyrimidin-2-yl)-5,6,7,8-tetrahydrophthalazin-1(2H)-one]	< 500
COc1cnc(-n2ncc3c(c2=O)CCC(c2cccc(OC)c2C)C3)cn1 (centres unmarked) [Example 44, 6-(3-methoxy-2-methylphenyl)-2-(5-methoxypyrazin-2-yl)-5,6,7,8-tetrahydrophthalazin-1(2H)-one]	< 500
Cc1cnc(-n2ncc3c(c2=O)CCC(c2cccc(OC4CC4)c2C)C3)nc1 (single isomer, unassigned; (+)) [Example 133, (+)-6-(3-cyclopropoxy-2-methylphenyl)-2-(5-methylpyrimidin-2-yl)-5,6,7,8-tetrahydrophthalazin-1(2H)-one]	1000 to 30000
COCc1ccc(-n2ncc3c(c2=O)CCC(c2ccc(C)cc2C)C3)nc1 (centres unmarked) [Example 27, 6-(2,4-dimethylphenyl)-2-(5-(methoxymethyl)pyridin-2-yl)-5,6,7,8-tetrahydrophthalazin-1(2H)-one]	< 500
Cc1ccc(OC2CC2)cc1C1CCc2c(cnn(-c3ncccn3)c2=O)C1 (centres unmarked) [Example 84, 6-(5-cyclopropoxy-2-methylphenyl)-2-(pyrimidin-2-yl)-5,6,7,8-tetrahydrophthalazin-1(2H)-one]	< 500
CC(=O)Nc1cnc(-n2ncc3c(c2=O)CCC(c2ccc(C)cc2C)C3)nc1 (single isomer, unassigned; (+)) [Example 137, (+)-N-(2-(6-(2,4-dimethylphenyl)-1-oxo-5,6,7,8-tetrahydrophthalazin-2(1H)-yl)pyrimidin-5-yl)acetamide]	< 500
CN(C)c1cccc(C2CCc3c(cnn(-c4ccccn4)c3=O)C2)c1 (centres unmarked) [Example 59, 6-(3-(dimethylamino)phenyl)-2-(pyridin-2-yl)-5,6,7,8-tetrahydrophthalazin-1(2H)-one]	< 500
COc1ccccc1C1CCc2c(cnn(-c3ccccn3)c2=O)C1 (centres unmarked) [Example 58, 6-(2-methoxyphenyl)-2-(pyridin-2-yl)-5,6,7,8-tetrahydrophthalazin-1(2H)-one]	< 500
